Source: PubChem BioAssay (NCI)
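Growth conditions: 96-well plates. Treatment: test compound, 48 hours, 5 concentrations. Analysis: linear interpolation between bracketing concentrations; unreached endpoints set to highest concentration. GI50 is the concentration that inhibits growth by half. TGI: total growth inhibition.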

Assays:
Experiment in all cases: NCI tumour cell line growth inhibition, 48 h
A498 renal = test system: A498 renal
EKVX NSCLC = test system: EKVX NSCLC
HCC-2998 colon = test system: HCC-2998 colon
HCT-116 colon = test system: HCT-116 colon
NCI/ADR-RES ovarian = test system: NCI/ADR-RES ovarian
OVCAR-8 ovarian = test system: OVCAR-8 ovarian
SF-295 CNS = test system: SF-295 CNS
U251 CNS = test system: U251 CNS
UACC-257 melanoma = test system: UACC-257 melanoma
MALME-3M melanoma = test system: MALME-3M melanoma

O=c1c2ccccc2[nH]n1Cc1ccccc1
TGI (A498 renal): > 100 µM
TGI (EKVX NSCLC): > 100 µM
TGI (HCC-2998 colon): > 100 µM
TGI (HCT-116 colon): > 100 µM
TGI (NCI/ADR-RES ovarian): > 100 µM
TGI (OVCAR-8 ovarian): > 100 µM
TGI (SF-295 CNS): > 100 µM
TGI (U251 CNS): > 100 µM
TGI (UACC-257 melanoma): > 100 µM

NCCSc1cc(O)c2c(c1N)C(=O)c1ccccc1C2=O
TGI (A498 renal): > 100 µM
TGI (EKVX NSCLC): > 100 µM
TGI (HCC-2998 colon): > 100 µM
TGI (HCT-116 colon): > 100 µM
TGI (MALME-3M melanoma): 75.5 µM
TGI (OVCAR-8 ovarian): > 100 µM
TGI (SF-295 CNS): > 100 µM
TGI (U251 CNS): > 100 µM

CC1(C)[C@@H]2CC[C@]1(C)[C@H](OC(=O)/C=C/c1ccccc1)C2
TGI (A498 renal): 32.3 µM
TGI (EKVX NSCLC): 41.8 µM
TGI (HCC-2998 colon): 30.7 µM
TGI (HCT-116 colon): 38.1 µM
TGI (MALME-3M melanoma): 38.5 µM
TGI (NCI/ADR-RES ovarian): 37.1 µM
TGI (OVCAR-8 ovarian): 36.5 µM
TGI (SF-295 CNS): 36.3 µM
TGI (U251 CNS): 32.4 µM
TGI (UACC-257 melanoma): 63.3 µM

COc1cccc(/C=N/NC(=O)CSCC(=O)N/N=C/c2cccc(OC)c2OC)c1OC
TGI (A498 renal): > 100 µM
TGI (EKVX NSCLC): > 100 µM
TGI (HCC-2998 colon): > 100 µM
TGI (HCT-116 colon): > 100 µM
TGI (MALME-3M melanoma): > 100 µM
TGI (NCI/ADR-RES ovarian): > 100 µM
TGI (OVCAR-8 ovarian): > 100 µM
TGI (SF-295 CNS): > 100 µM
TGI (U251 CNS): > 100 µM
TGI (UACC-257 melanoma): > 100 µM

O=C1C=CC2OC(c3ccccc3)C(O)C2O1 (stereo not drawn)
TGI (A498 renal): 5.85 µM
TGI (EKVX NSCLC): 15.4 µM
TGI (HCC-2998 colon): 10.9 µM
TGI (HCT-116 colon): 10.6 µM
TGI (MALME-3M melanoma): 11.3 µM
TGI (NCI/ADR-RES ovarian): 15.2 µM
TGI (OVCAR-8 ovarian): 20.2 µM
TGI (SF-295 CNS): 19.6 µM
TGI (U251 CNS): 22.4 µM
TGI (UACC-257 melanoma): 18.5 µM

COc1cc(OC)cc(-c2ccc(-c3ccc(C(=N)N)cn3)o2)c1
GI50 (A498 renal): 1.22 µM
TGI (A498 renal): 2.51 µM
GI50 (MALME-3M melanoma): 1.82 µM
TGI (MALME-3M melanoma): 3.49 µM
GI50 (NCI/ADR-RES ovarian): 6.53 µM
TGI (NCI/ADR-RES ovarian): 38.5 µM
GI50 (SF-295 CNS): 1.86 µM
TGI (SF-295 CNS): 3.46 µM
GI50 (U251 CNS): 1.62 µM
TGI (U251 CNS): 3.02 µM
GI50 (UACC-257 melanoma): 1.76 µM
TGI (UACC-257 melanoma): 3.3 µM

COc1cc(C(=O)O[C@H](C(=O)NCCCNC(=O)[C@@H](OC(=O)c2cc(OC)cc3c(C)cccc23)[C@]2(C)CO2)[C@]2(C)CO2)c2cccc(C)c2c1
TGI (A498 renal): 1.83 µM
GI50 (EKVX NSCLC): 0.0885 µM
TGI (EKVX NSCLC): 1.61 µM
GI50 (HCC-2998 colon): < 0.0198 µM
TGI (HCC-2998 colon): 0.224 µM
GI50 (NCI/ADR-RES ovarian): 0.154 µM
TGI (NCI/ADR-RES ovarian): 0.97 µM
TGI (SF-295 CNS): 0.562 µM
GI50 (U251 CNS): < 0.01 µM
TGI (U251 CNS): 0.0206 µM
GI50 (UACC-257 melanoma): 0.27 µM
TGI (UACC-257 melanoma): 0.872 µM

COc1ccc2c3c(Nc4cccc(/C(C)=N\O)c4)[nH]c4ccccc4c-3c(N=O)c2c1
GI50 (A498 renal): 78.1 µM
TGI (A498 renal): > 100 µM
GI50 (EKVX NSCLC): 20.5 µM
TGI (EKVX NSCLC): 93.2 µM
GI50 (HCC-2998 colon): 10.6 µM
TGI (HCC-2998 colon): 22.4 µM
GI50 (HCT-116 colon): 14.6 µM
TGI (HCT-116 colon): 34.2 µM
GI50 (MALME-3M melanoma): 34.7 µM
TGI (MALME-3M melanoma): 95.5 µM
GI50 (NCI/ADR-RES ovarian): 21.2 µM
TGI (NCI/ADR-RES ovarian): 96.9 µM
GI50 (OVCAR-8 ovarian): 25.8 µM
TGI (OVCAR-8 ovarian): > 100 µM
GI50 (SF-295 CNS): > 100 µM
TGI (SF-295 CNS): > 100 µM
GI50 (U251 CNS): 33.3 µM
TGI (U251 CNS): > 100 µM
GI50 (UACC-257 melanoma): 41 µM
TGI (UACC-257 melanoma): > 100 µM

COc1cc(C2c3cc4c(cc3[C@@H](Nc3cccc(CO)c3)C3COC(=O)[C@H]23)OCO4)cc(OC)c1O (stereo partly drawn)
TGI (A498 renal): 1.77 µM
TGI (EKVX NSCLC): 19.8 µM
TGI (HCC-2998 colon): 3.79 µM
TGI (HCT-116 colon): 11.6 µM
TGI (MALME-3M melanoma): 11.4 µM
TGI (NCI/ADR-RES ovarian): 59.2 µM
TGI (OVCAR-8 ovarian): 16.2 µM
TGI (SF-295 CNS): 5.05 µM
TGI (UACC-257 melanoma): 5.04 µM

C=CCN1/C(=C(\C#N)c2nc3ccccc3[nH]2)Sc2c1nc[nH]c2=O
TGI (A498 renal): > 100 µM
TGI (EKVX NSCLC): > 100 µM
TGI (HCC-2998 colon): > 100 µM
TGI (HCT-116 colon): > 100 µM
TGI (MALME-3M melanoma): > 100 µM
TGI (OVCAR-8 ovarian): > 100 µM
TGI (SF-295 CNS): > 100 µM
TGI (U251 CNS): > 100 µM
TGI (UACC-257 melanoma): > 100 µM

Cc1[nH]c(=O)[nH]c(=O)c1/C=C/C(=O)O (tested in a mixture with another compound)
TGI (A498 renal): > 625 µM
TGI (EKVX NSCLC): > 625 µM
TGI (HCC-2998 colon): > 625 µM
TGI (HCT-116 colon): > 625 µM
TGI (MALME-3M melanoma): > 625 µM
TGI (NCI/ADR-RES ovarian): > 625 µM
TGI (OVCAR-8 ovarian): > 568 µM
TGI (SF-295 CNS): > 625 µM
TGI (U251 CNS): > 625 µM
TGI (UACC-257 melanoma): > 625 µM

CC(CC(N)C(=O)O)C(=O)O (stereo not drawn)
TGI (A498 renal): > 100 µM
TGI (EKVX NSCLC): > 100 µM
TGI (HCT-116 colon): > 100 µM
TGI (MALME-3M melanoma): > 100 µM
TGI (NCI/ADR-RES ovarian): > 100 µM
TGI (OVCAR-8 ovarian): > 100 µM
TGI (SF-295 CNS): > 100 µM
TGI (U251 CNS): > 100 µM
TGI (UACC-257 melanoma): > 100 µM

CCC(C)C(N)C(=O)NC(CC(N)=O)C(=O)NC(CC(C)C)C(=O)NC(CCCCN)C(=O)NC(C)C(=O)NC(CC(C)C)C(=O)NC(C)C(=O)NC(C)C(=O)NC(CC(C)C)C(=O)NC(C)C(=O)NC(CCCCN)C(=O)NC(CCCCN)C(=O)NC(C(=O)NC(CC(C)C)C(N)=O)C(C)CC (stereo not drawn)
TGI (A498 renal): 32.5 µM
TGI (EKVX NSCLC): 18.7 µM
TGI (HCC-2998 colon): > 56.3 µM
TGI (HCT-116 colon): 29 µM
TGI (MALME-3M melanoma): 10.7 µM
TGI (OVCAR-8 ovarian): 34.3 µM
TGI (SF-295 CNS): 35.3 µM
TGI (U251 CNS): 30.9 µM
TGI (UACC-257 melanoma): 19.1 µM

COc1nc2cccc(C(O)c3ccccc3)c2nc1-c1ccccc1 (stereo not drawn)
TGI (A498 renal): 11.7 µM
TGI (EKVX NSCLC): 41.9 µM
TGI (HCT-116 colon): 16.2 µM
TGI (MALME-3M melanoma): > 100 µM
TGI (NCI/ADR-RES ovarian): 15.9 µM
TGI (OVCAR-8 ovarian): > 100 µM
TGI (SF-295 CNS): 17 µM
TGI (U251 CNS): 16.8 µM
TGI (UACC-257 melanoma): 26.9 µM

OCC1COc2cc(Cl)c(Cl)cc2O1 (stereo not drawn)
TGI (A498 renal): > 10 µM
TGI (EKVX NSCLC): > 10 µM
TGI (HCC-2998 colon): > 10 µM
TGI (HCT-116 colon): > 10 µM
TGI (MALME-3M melanoma): > 10 µM
TGI (NCI/ADR-RES ovarian): > 10 µM
TGI (OVCAR-8 ovarian): > 10 µM
TGI (SF-295 CNS): > 10 µM
TGI (U251 CNS): > 10 µM

COc1cc2c3cc1Oc1c(O)c(OC)cc4c1C(Cc1ccc(O)c(c1)Oc1ccc(cc1)CC3N(C)CC2)N(C)CC4 (stereo not drawn)
TGI (A498 renal): 32.2 µM
TGI (EKVX NSCLC): 37.1 µM
TGI (HCC-2998 colon): 13.6 µM
TGI (HCT-116 colon): 22.5 µM
TGI (MALME-3M melanoma): 32.8 µM
TGI (OVCAR-8 ovarian): 28.4 µM
TGI (SF-295 CNS): 29.7 µM
TGI (U251 CNS): 27.3 µM
TGI (UACC-257 melanoma): 33.4 µM

N#CC(N=Nc1ccccc1C(=O)O)C(N)=O (stereo not drawn)
TGI (EKVX NSCLC): > 100 µM
TGI (HCT-116 colon): > 100 µM
TGI (MALME-3M melanoma): > 100 µM
TGI (NCI/ADR-RES ovarian): > 100 µM
TGI (SF-295 CNS): > 100 µM
TGI (U251 CNS): > 100 µM
TGI (UACC-257 melanoma): > 100 µM

Cc1cccc(Br)[n+]1[O-]
TGI (EKVX NSCLC): > 100 µM
TGI (HCT-116 colon): > 100 µM
TGI (MALME-3M melanoma): > 100 µM
TGI (NCI/ADR-RES ovarian): > 100 µM
TGI (OVCAR-8 ovarian): > 100 µM
TGI (SF-295 CNS): > 100 µM
TGI (U251 CNS): > 100 µM
TGI (UACC-257 melanoma): > 100 µM

Cc1c[n+]2c3ccccc3c3ccccc3c2s1
TGI (A498 renal): > 100 µM
TGI (EKVX NSCLC): > 100 µM
TGI (HCC-2998 colon): 13.7 µM
TGI (HCT-116 colon): > 70.1 µM
TGI (MALME-3M melanoma): 7.87 µM
TGI (OVCAR-8 ovarian): 28.8 µM
TGI (SF-295 CNS): 33.5 µM
TGI (U251 CNS): 12.3 µM
TGI (UACC-257 melanoma): 18.3 µM
